Data: patent publication US12123028B2, “Viral inactivation methods for continuous manufacturing of antibodies” (Bayer HealthCare LLC, priority 2018, dated 2024)

Tests used:
X-MuLV = assay: Dual X-MuLV inactivation by low pH and detergent in mAb protein A eluate, remaining infectivity by TCID50 assay on PG-4 cells; assay type: cell-based, Xenotropic Murine Leukemia Virus; conditions: for required inactivation time compared with 0.2% Tween 80 / time required for X-MuLV inactivation: 16° C.; for treatment time to completely inactivate X-MuLV: 18° C.
Protocol: […] The pH adjusted eluates were then filtered by a 0.22 um filter. Various volumes of 5% detergent stock solution were then added to the filtered protein A eluates. The low pH protein A eluates containing Mega-10, Tween 80 or Tween 20 were pre-incubated at a 16° C. water bath prior to spiking with X-MuLV at a 1:20 ratio. After a thorough mixing, an aliquot of sample was removed immediately and neutralized with 1 M Tris buffer to stop low pH viral inactivation, then immediately quenched with diluent at 1:12 for Mega-10 or at 1:100 for Tween 20 and Tween 80 to stop viral inactivation by the detergent. The collected sample was designated as a time-zero reference. The remaining spiked eluate was returned to the water bath and the samples were collected at indicated times to evaluate the viral inactivation kinetics. The remaining X-MuLV infectivity in the samples post-inactivation treatment was determined by a TCID50 assay that is an endpoint dilution assay to quantify the amount of virus required to produce a cytopathic effect in 50% of inoculated tissue culture cells. Virus titers were estimated using the Spearman-Karber method and reported as TCID50/mL with a calculated 95% confidence interval (CI). Briefly, a sufficient number of 96-well plates with PG-4 (feline S^+L^−, ATCC#CRL-2032) cells were prepared the day before starting the viral inactivation experiments and incubated overnight in a 37° C. humidified CO2 incubator. A set of ten 3.2 fold dilution of the diluted positive control (1:100) and viral inactivated samples were prepared in a dilution block. Each set of the 11 serial dilutions of the samples were inoculated correspondingly onto wells (100 μL per well) of the first 11 columns in a 96-well plate that had been pre-seeded with PG-4 cells. The 12th column in the same plate was inoculated with the corresponding diluent to serve as non-virus negative control. The positive control was prepared by spiking the filtered neutralized protein A eluate with X-MuLV at a 1:20 ratio. The inoculated plates were then incubated in a 37° C. humidified CO2 incubator for approximate 2 hours. A volume of 100 uL of 2× assay medium (92% McCoy's 5A medium, 4% FBS, 2% Penicillin/Streptomycin, 2% L-Glutamine) was added to each well of the plates at the end of incubation. The plates were then returned to the same incubator, and continued incubation for 6 days. Each well of the plates were scored under a microscope for the presence of cytopathic effect (CPE) and the results were recorded in a scoring sheet. Virus titers were then estimated using the Spearman-Karber method and reported as TCID50/mL with a calculated 95% confidence interval (CI).

retroviruses = conditions: Triton X-100 ≥0.5%; hold time ≥60 minutes; 15-25° C.; pH 6.0-8.0; clarified, cell-free intermediate of mAb or IgG Fc fusion protein; cited from earlier work

Row | Compound | time needed for inactivating X-MuLV to the level below the detection limit (X-MuLV; dual treatment: mAb2 protein A eluate pH 4.05 with 0.5% Tween 80, 16° C. (120 minutes by pH 4.0 alone at 18° C.)) | incubation time needed for inactivation of X-MuLV to the level below the detection limit (X-MuLV; dual treatment: mAb3 (IgG2) protein A eluate pH 3.97 with 0.5% Tween 80, 16° C. (120 minutes by low pH alone)) | required inactivation time (X-MuLV; dual treatment: mAb3 protein A eluate pH 3.99 with 0.2% Tween 80, 16° C. (120 minutes without detergent)) | required inactivation time compared with 0.2% Tween 80 (X-MuLV; dual treatment: mAb3 protein A eluate pH 3.99 with 0.3% Tween 80) | required inactivation time compared with 0.2% Tween 80 (X-MuLV; dual treatment: mAb3 protein A eluate pH 3.99 with 0.5% Tween 80) | time required for X-MuLV inactivation (X-MuLV; mAb3 protein A eluate containing 0.1% Tween 80 at pH 3.7) | time required for X-MuLV inactivation (X-MuLV; mAb3 protein A eluate containing 0.1% Tween 80 at pH 3.8) | time required for X-MuLV inactivation (X-MuLV; mAb3 protein A eluate containing 0.1% Tween 80 at pH 3.9) | time required for X-MuLV inactivation (X-MuLV; mAb3 protein A eluate containing 0.1% Tween 80 at pH 4.0) | treatment time to completely inactivate X-MuLV (X-MuLV; mAb4 protein A eluate at pH 4.11 containing 1% Tween 80) | treatment time to completely inactivate X-MuLV (X-MuLV; mAb4 protein A eluate at pH 4.20 containing 1% Tween 80) | treatment time to completely inactivate X-MuLV (X-MuLV; mAb4 protein A eluate at pH 4.30 containing 1% Tween 80) | LRF of retroviral inactivation (retroviruses)
1 | CCCCCCCC/C=C\CCCCCCCC(=O)OCCOCC(OCCO)C1OCC(OCCO)C1OCCO (stereo not shown) [Tween 80] | 10 min | 5 min | 5 min | no further reducing of time | no further reducing of time | 0 min | 1 min | 2.5 min | 10 min | 1 h | 3 h | 4 h | –
2 | Triton X-100 | – | – | – | – | – | – | – | – | – | – | – | – | ≥ 4.0
